Test results published in patent US12414931B1 (priority 2024, dated 2025).

Tests used:
[1] = biological target: T1, purified recombinant KGA (Homo sapiens, UniProt O94925); assay: KGA activity inhibition assay, spectrophotometric (NADH production at 340 nm); format: biochemical; conditions: 37° C., 30 min, 5 mM glutamine
T1 construct: His6 (C); made in house; host or cells: E. coli Rosetta (DE3), pET28a(+)
T1 sequence (O94925 72-598): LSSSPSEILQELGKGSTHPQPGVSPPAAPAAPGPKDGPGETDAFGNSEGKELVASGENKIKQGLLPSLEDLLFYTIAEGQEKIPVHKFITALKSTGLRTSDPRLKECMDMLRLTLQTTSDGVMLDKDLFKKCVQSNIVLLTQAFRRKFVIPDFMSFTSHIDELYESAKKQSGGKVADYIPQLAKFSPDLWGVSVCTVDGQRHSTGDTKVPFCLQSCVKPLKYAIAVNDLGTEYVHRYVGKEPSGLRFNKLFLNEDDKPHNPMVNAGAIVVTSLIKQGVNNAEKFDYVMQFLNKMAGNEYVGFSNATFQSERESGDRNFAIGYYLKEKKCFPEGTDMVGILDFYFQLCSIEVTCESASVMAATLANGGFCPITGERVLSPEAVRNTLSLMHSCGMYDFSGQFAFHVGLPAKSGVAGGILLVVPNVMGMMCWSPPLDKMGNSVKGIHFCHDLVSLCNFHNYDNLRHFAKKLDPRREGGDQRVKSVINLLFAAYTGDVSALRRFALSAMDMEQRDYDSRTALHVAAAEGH

[2] = biological target: T2, KGA (Homo sapiens, UniProt O94925); format: biochemical
T2 construct: His6 (C); made in house; host or cells: E. coli Rosetta (DE3), pET28a(+)
T2 sequence (O94925 72-598): T1 sequence (O94925 72-598)

[3] = biological target: purified KGA (Homo sapiens, UniProt O94925); conditions: read-out: apparent binding affinity (Kd)
[4] = test system: MCF12A cells; format: cell-based, human; conditions: read-out: IC50 cell viability, normal breast cells
[5] = test system: MDA-MB-231 cells
[6] = test system: HCC1569 cells
[7] = test system: MDA-MB-231 cells; remark: listed apart in the source

## N[C@H](CC[As](=O)(O)O)C(=O)O [AST-OH, hydroxyarsinothricin]
[1]
  half-maximal inhibitory concentration (IC50) against KGA: submillimolar range

## NC(CC[As](O)O)C(=O)O (stereo not shown) [R-AST-OH, trivalent hydroxyarsinothricin]
[2]; luminescent assay, 15 min preincubation with KGA, read-out: IC50 against KGA
  IC50: 2 µM
[2]; ratio of IC50 values
  fold more effective inhibitor of KGA than Rox(III): 4.5 fold
  fold more effective inhibitor of KGA than pentavalent AST-OH: 125 fold
[3]
  Kd: 40 µM
[4]
  IC50: 75 µM
[5]; 10 µM
  cells that lost viability: approximately 64%
[5]; read-out: IC50 cell viability
  IC50: 5 µM
[6]; 10 µM
  cells that lost viability: ~47%
[6]; read-out: IC50 cell viability
  IC50: 3 µM
[7]
  cell permeability (uptake of arsenicals): lowest permeability

## NC(CCP(=O)(O)O)C(=O)O (stereo not shown) [AP4, 2-amino-4-phosphonobutyric acid]
[1]
  half-maximal inhibitory concentration (IC50) against KGA: submillimolar range

## [N-]=[N+]=CC(=O)CC[C@H](N)C(=O)O [DON, 6-diazo-5-oxo-L-norleucine]
[1]
  half-maximal inhibitory concentration (IC50) against KGA: submillimolar range
